Residue numbers refer to the chain shown, from its start.
Assays:
Test in all cases: two-electrode voltage clamp, Xenopus oocytes
X1-BX4 [1] = test system: T1, X1-BX4; format: cell-based, Homo sapiens; Rattus norvegicus; details: ND96 with Ba2+, -60 mV
T1 construct: gene P2RX1; hP2X1 with residues 133-184 (hP2X1 numbering) replaced by the corresponding rP2X4 segment; Xenopus oocytes
Description: two-electrode voltage clamp, Xenopus oocytes on X1-BX4

X1-AX4 = test system: T2, X1-AX4; format: cell-based, Homo sapiens; Rattus norvegicus; details: ND96 with Ba2+, -60 mV
T2 construct: gene P2RX1; hP2X1 with residues 63-132 replaced by the corresponding rP2X4 segment (63-133); Xenopus oocytes
Description: two-electrode voltage clamp, Xenopus oocytes on X1-AX4

X1-CX4 = test system: T3, X1-CX4; format: cell-based, Homo sapiens; Rattus norvegicus; details: ND96 with Ba2+, -60 mV
T3 construct: gene P2RX1; hP2X1 with residues 185-261 (hP2X1 numbering) replaced by the corresponding rP2X4 segment; Xenopus oocytes
Description: two-electrode voltage clamp, Xenopus oocytes on X1-CX4

X1-CδX4 = test system: T4, X1-CδX4; format: cell-based, Homo sapiens; Rattus norvegicus; details: agonist; 3 s application; ND96 with Ba2+, -60 mV
T4 construct: gene P2RX1; hP2X1 with residues 216-220 replaced by the corresponding rP2X4 segment; Xenopus oocytes
Description: two-electrode voltage clamp, Xenopus oocytes on X1-CδX4

X1-CϵX4 = test system: T5, X1-CϵX4; format: cell-based, Homo sapiens; Rattus norvegicus; details: agonist; 3 s application; ND96 with Ba2+, -60 mV
T5 construct: gene P2RX1; hP2X1 with residues 221-226 replaced by the corresponding rP2X4 segment; Xenopus oocytes
Description: two-electrode voltage clamp, Xenopus oocytes on X1-CϵX4

X1-DX4 = test system: T6, X1-DX4; format: cell-based, Homo sapiens; Rattus norvegicus; details: ND96 with Ba2+, -60 mV
T6 construct: gene P2RX1; hP2X1 with residues 262-330 (hP2X1 numbering) replaced by the corresponding rP2X4 segment; Xenopus oocytes
Description: two-electrode voltage clamp, Xenopus oocytes on X1-DX4

hP2X1 receptor = molecular target: T7, hP2X1 receptor (Homo sapiens, UniProt P51575); format: cell-based
T7 construct: gene P2RX1; full-length cDNA cloned from bladder; homotrimer; cRNA expressed in Xenopus laevis oocytes
T7 sequence (P51575 1-399): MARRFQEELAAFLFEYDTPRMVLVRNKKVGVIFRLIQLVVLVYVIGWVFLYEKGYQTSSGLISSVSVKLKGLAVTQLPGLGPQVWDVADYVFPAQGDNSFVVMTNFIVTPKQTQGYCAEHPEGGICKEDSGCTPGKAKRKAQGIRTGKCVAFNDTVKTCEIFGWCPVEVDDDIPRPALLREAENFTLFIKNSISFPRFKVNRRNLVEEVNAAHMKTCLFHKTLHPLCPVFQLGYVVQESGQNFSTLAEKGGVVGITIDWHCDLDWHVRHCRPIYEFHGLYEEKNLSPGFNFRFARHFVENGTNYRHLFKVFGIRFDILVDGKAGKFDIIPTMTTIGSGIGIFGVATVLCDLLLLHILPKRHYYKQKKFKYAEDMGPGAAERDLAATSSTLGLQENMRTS
Description: two-electrode voltage clamp, Xenopus oocytes on hP2X1 receptor

rP2X4 receptor [2] = molecular target: T8, rP2X4 receptor (Rattus norvegicus, UniProt P51577, Y378A); format: cell-based
T8 construct: gene P2rx4; homotrimer; cRNA expressed in Xenopus laevis oocytes
T8 sequence (P51577 1-388 Y378A): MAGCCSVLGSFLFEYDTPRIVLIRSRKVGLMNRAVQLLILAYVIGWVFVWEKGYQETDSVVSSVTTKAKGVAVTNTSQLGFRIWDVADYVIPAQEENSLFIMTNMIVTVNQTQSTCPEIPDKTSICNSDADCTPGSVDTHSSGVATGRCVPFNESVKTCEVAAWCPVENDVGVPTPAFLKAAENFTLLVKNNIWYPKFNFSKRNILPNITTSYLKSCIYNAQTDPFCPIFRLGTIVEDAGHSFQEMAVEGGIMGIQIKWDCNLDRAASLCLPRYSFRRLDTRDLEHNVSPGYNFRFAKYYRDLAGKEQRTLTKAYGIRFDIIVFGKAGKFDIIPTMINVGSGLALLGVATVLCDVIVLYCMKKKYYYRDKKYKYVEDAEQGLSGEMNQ
Description: two-electrode voltage clamp, Xenopus oocytes on rP2X4 receptor

X1-BX4 [3] = test system: T1, X1-BX4; format: cell-based, Homo sapiens; Rattus norvegicus; details: agonist; 3 s application; ND96 with Ba2+, -60 mV
X1-CβX4 = test system: T9, X1-CβX4; format: cell-based, Homo sapiens; Rattus norvegicus; details: agonist; 3 s application; ND96 with Ba2+, -60 mV
T9 construct: gene P2RX1; hP2X1 with residues 232-261 replaced by the corresponding rP2X4 segment; Xenopus oocytes
Description: two-electrode voltage clamp, Xenopus oocytes on X1-CβX4

X1-CγX4 = test system: T10, X1-CγX4; format: cell-based, Homo sapiens; Rattus norvegicus; details: agonist; 3 s application; ND96 with Ba2+, -60 mV
T10 construct: gene P2RX1; hP2X1 with residues 210-215 replaced by the corresponding rP2X4 segment; Xenopus oocytes
Description: two-electrode voltage clamp, Xenopus oocytes on X1-CγX4

X1-CαX4 = test system: T11, X1-CαX4; format: cell-based, Homo sapiens; Rattus norvegicus; details: agonist; 3 s application; ND96 with Ba2+, -60 mV
T11 construct: gene P2RX1; text says 184-209) replaced by the corresponding rP2X4 segment; Xenopus oocytes
Description: two-electrode voltage clamp, Xenopus oocytes on X1-CαX4

X1-CζX4 = test system: T12, X1-CζX4; format: cell-based, Homo sapiens; Rattus norvegicus; details: agonist; 3 s application; ND96 with Ba2+, -60 mV
T12 construct: gene P2RX1; hP2X1 with residues 227-231 replaced by the corresponding rP2X4 segment; Xenopus oocytes
Description: two-electrode voltage clamp, Xenopus oocytes on X1-CζX4

X1-BX4 [4] = test system: T1, X1-BX4; format: cell-based, Homo sapiens; Rattus norvegicus; details: antagonist at EC90 of ATP; 5 min preincubation; ND96 with Ba2+, -60 mV
rP2X4 receptor [5] = molecular target: T13, rP2X4 receptor (Rattus norvegicus, UniProt P51577, D138K/H140K/S136K/T139R/Y378A); format: cell-based; details: read-out: % of control at 1 μM
T13 construct: gene P2rx4; homotrimer; cRNA expressed in Xenopus laevis oocytes
T13 sequence (P51577 1-388 S136K/D138K/T139R/H140K/Y378A): T8 sequence (P51577 1-388 Y378A) with S136K, D138K, T139R, H140K

[6] = read-out: ATP / pEC50 (converted)
[7] = antagonist at EC90 of ATP, 5 min preincubation

Nc1ncnc2c1ncn2[C@@H]1O[C@H](COP(=O)(O)OP(=O)(O)OP(=O)(O)O)[C@@H](O)[C@H]1O [ATP]
ATP / pEC50 (X1-BX4 [1]; agonist, 3 s application): 4.28 ± 0.04 | ATP / pEC50 (X1-AX4; agonist, 3 s application): 4.43 ± 0.08 | ATP / pEC50 (X1-CX4; agonist, 3 s application): 6.17 ± 0.13 | ATP / pEC50 (X1-CδX4): 5.21 ± 0.04 | ATP / pEC50 (X1-CϵX4): 5.68 ± 0.06 | ATP / pEC50 (X1-DX4; agonist, 3 s application): 5.08 ± 0.04 | EC50 (hP2X1 receptor; [6]): 0.49 µM | EC50 (rP2X4 receptor [2]; [6]): 4.07 µM | pEC50 (X1-BX4 [3]): 3.6 ± 0.1 | ATP / pEC50 (X1-CβX4): 5.30 ± 0.06 | ATP / pEC50 (X1-CγX4): 5.71 ± 0.06 | ATP / pEC50 (X1-CαX4): 5.34 ± 0.05 | ATP / pEC50 (X1-CζX4): 5.54 ± 0.06

O=C(Nc1cc(C(=O)Nc2ccc(S(=O)(=O)O)cc2S(=O)(=O)O)cc(C(=O)Nc2ccc(S(=O)(=O)O)cc2S(=O)(=O)O)c1)Nc1cc(C(=O)Nc2ccc(S(=O)(=O)O)cc2S(=O)(=O)O)cc(C(=O)Nc2ccc(S(=O)(=O)O)cc2S(=O)(=O)O)c1 [NF449, 4,4′,4″,4‴-(carbonylbis(imino-5,1,3-benzenetriylbis(carbonylimino)))tetrakisbenzene-1,3-disulfonic acid]
pIC50 (X1-BX4 [4]): 9.28 ± 0.05 | IC50 (rP2X4 receptor [2]): > 1 µM | remaining activity at 1 µM (rP2X4 receptor [5]): 104 ± 5.3%

Cc1nc(N=Nc2ccc(S(=O)(=O)O)cc2S(=O)(=O)O)c(COP(=O)(O)O)c(C=O)c1O [PPADS, pyridoxal-phosphate-6-azophenyl-2,4-disulfonate]
PPADS / pIC50 (X1-BX4 [1]; [7]): 5.24 ± 0.12 | PPADS / pIC50 (X1-AX4; [7]): 6.18 ± 0.02 | PPADS / pIC50 (X1-CX4; [7]): 5.47 ± 0.12 | PPADS / pIC50 (X1-DX4; [7]): 6.95 ± 0.07 | IC50 (hP2X1 receptor; read-out: PPADS / pIC50 (converted)): 1.58 µM | IC50 (rP2X4 receptor [2]): > 100 µM

Cc1ccc(C(=O)Nc2ccc(S(=O)(=O)O)c3cc(S(=O)(=O)O)cc(S(=O)(=O)O)c23)cc1NC(=O)c1cccc(NC(=O)Nc2cccc(C(=O)Nc3cc(C(=O)Nc4ccc(S(=O)(=O)O)c5cc(S(=O)(=O)O)cc(S(=O)(=O)O)c45)ccc3C)c2)c1 [Suramin]
IC50 (rP2X4 receptor [2]): > 100 µM

From PMC4340402 (The Journal of Biological Chemistry, 2014)
